Measured values as given in patent US10654834B2 (Venenum Biodesign, LLC, priority 2016, dated 2020).

Key:
[1] = target: T1, mouse TGR5 receptor (Mus musculus, UniProt Q80SS6); experiment: Mouse TGR5 HTRF cAMP production assay (HEK293-EBNA cells, Cisbio cAMP HiRange kit); assay type: cell-based; conditions: HEK293-EBNA cells overexpressing mouse TGR5, HTRF cAMP assay
T1 construct: host or cells: HEK293-EBNA (293 c18, ATCC CRL10852)
T1 sequence (Q80SS6 1-329): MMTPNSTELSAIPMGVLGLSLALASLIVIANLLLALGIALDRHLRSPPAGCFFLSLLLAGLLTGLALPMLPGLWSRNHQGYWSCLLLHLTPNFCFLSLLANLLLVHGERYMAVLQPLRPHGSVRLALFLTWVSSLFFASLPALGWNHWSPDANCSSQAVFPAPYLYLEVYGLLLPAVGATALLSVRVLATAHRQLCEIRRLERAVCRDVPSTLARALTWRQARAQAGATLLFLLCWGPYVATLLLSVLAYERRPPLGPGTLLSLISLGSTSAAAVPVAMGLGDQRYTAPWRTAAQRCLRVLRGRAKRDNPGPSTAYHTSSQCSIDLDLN
Outline: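 cAMP accumulation was read by competitive HTRF after 1 h room-temperature compound treatment, with a further 1 h conjugate incubation. Cells were mouse TGR5-overexpressing HEK293-EBNA in serum-free DMEM plus 500 μM IBMX. Compounds ran as 12-point half-log series in duplicate, and EC50 values were reported.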

[2] = Pharmacokinetic profile in mice after oral gavage; assay type: in vivo, mouse; conditions: mouse; fasted male Hilltop mice, 10 mg/kg oral gavage, plasma; read-out: Cmax
Outline: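 Plasma exposure (Cmax, AUC) by non-compartmental analysis of LC-MS/MS data, orbital blood taken at 0, 0.25, 0.5, 1, 2 and 4 h, each value averaging three mice. Dosing: 10 mg/kg oral gavage to overnight-fasted male Hilltop mice (8 weeks), vehicle PEG400/CMC/Tween-80.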

SMILES: N#Cc1ccc(CCNC(=O)[C@@H]2CCCN2c2cc(N3CCC(COCC(=O)O)CC3)nc(C(F)(F)F)n2)cc1 [Compound 88, (S)-2-((1-(6-(2-((4-cyanophenethyl)carbamoyl)pyrrolidin-1-yl)-2-(trifluoromethyl)pyrimidin-4-yl)piperidin-4-yl)methoxy)acetic acid]
- EC50 [1]: < 100 nM
- Cmax [2]: 630 ng/mL

SMILES: O=C(NCCC1CCN(c2cc(N3CCC[C@H]3C(=O)NCCc3ccc(C(F)(F)F)cc3)nc(C(F)(F)F)n2)CC1)NCCS(=O)(=O)O [Compound 86, (S)-2-(3-(2-(1-(2-(trifluoromethyl)-6-(2-((4-(trifluoromethyl)phenethyl)-carbamoyl)pyrrolidin-1-yl)pyrimidin-4-yl)piperidin-4-yl)ethyl)ureido)-ethanesulfonic acid]
- EC50 [1]: < 100 nM
- Cmax [2]: 13 ng/mL

SMILES: N#Cc1ccc(CCNC(=O)[C@@H]2CCCN2c2cc(N3CCC(CCCC(=O)NCP(=O)(O)O)CC3)nc(C(F)(F)F)n2)cc1 [Compound 64, (S)-((4-(1-(6-(2-((4-cyanophenethyl)carbamoyl)pyrrolidin-1-yl)-2-(trifluoromethyl)pyrimidin-4-yl)piperidin-4-yl)butanamido)methyl)-phosphonic acid]
- EC50 [1]: < 100 nM
- Cmax [2]: 2.9 ng/mL

SMILES: CS(=O)(=O)NCCNC(=O)CCCC1CCN(c2cc(N3CCC[C@H]3C(=O)NCCc3ccc(C(F)(F)F)cc3)nc(C(F)(F)F)n2)CC1 [Compound 91, (S)-1-(6-(4-(4-((2-(methylsulfonamido)ethyl)amino)-4-oxobutyl)piperidin-1-yl)-2-(trifluoromethyl)pyrimidin-4-yl)-N-(4-(trifluoromethyl)phenethyl)pyrrolidine-2-carboxamide]
- EC50 [1]: < 100 nM
- Cmax [2]: 10 ng/mL

SMILES: N#Cc1ccc(CCNC(=O)[C@@H]2CCCN2c2cc(N3CCC(CCCC(=O)NCS(=O)(=O)O)CC3)nc(C(F)(F)F)n2)cc1 [Compound 66, (S)-(4-(1-(6-(2-((4-cyanophenethyl)carbamoyl)pyrrolidin-1-yl)-2-(trifluoromethyl)pyrimidin-4-yl)piperidin-4-yl)butanamido)-methanesulfonic acid]
- EC50 [1]: < 100 nM
- Cmax [2]: 7.3 ng/mL

SMILES: CS(=O)(=O)NCCNC(=O)CCCC1CCN(c2cc(N3CCC[C@H]3C(=O)NCCc3ccc(C#N)cc3)nc(C(F)(F)F)n2)CC1 [Compound 93]
- EC50 [1]: < 100 nM
- Cmax [2]: 5 ng/mL

SMILES: N#Cc1ccc(CCNC(=O)[C@@H]2CCCN2c2cc(N3CCC(CCCC(=O)N[C@@H](CCC(=O)O)C(=O)O)CC3)nc(C(F)(F)F)n2)cc1 [Compound 76, (S)-2-(4-(1-(6-((S)-2-((4-cyanophenethyl)carbamoyl)pyrrolidin-1-yl)-2-(trifluoromethyl)pyrimidin-4-yl)piperidin-4-yl)butanamido)-pentanedioic acid]
- EC50 [1]: < 100 nM
- Cmax [2]: 3 ng/mL

SMILES: N#Cc1ccc(CCNC(=O)[C@@H]2CCCN2c2cc(N3CCC(CCNC(=O)NCCS(N)(=O)=O)CC3)nc(C(F)(F)F)n2)cc1 [Compound 80, (S)-N-(4-cyanophenethyl)-1-(6-(4-(2-(3-(2-sulfamoylethyl)ureido)-ethyl)piperidin-1-yl)-2-(trifluoromethyl)pyrimidin-4-yl)pyrrolidine-2-carboxamide]
- EC50 [1]: < 100 nM
- Cmax [2]: 1.2 ng/mL

SMILES: N#Cc1ccc(CCNC(=O)[C@@H]2CCCN2c2cc(N3CCC(CCNC(=O)NCCC(=O)O)CC3)nc(C(F)(F)F)n2)cc1 [Compound 81, (S)-3-(3-(2-(1-(6-(2-((4-cyanophenethyl)carbamoyl)pyrrolidin-1-yl)-2-(trifluoromethyl)pyrimidin-4-yl)piperidin-4-yl)ethyl)ureido)-propanoic acid]
- EC50 [1]: < 100 nM
- Cmax [2]: 60 ng/mL

SMILES: N#Cc1ccc(CCNC(=O)[C@@H]2CCCN2c2cc(N3CCC(CCCC(=O)N[C@@H](CCCNC(=N)N)C(=O)O)CC3)nc(C(F)(F)F)n2)cc1 [Compound 72, (S)-2-(4-(1-(6-((S)-2-((4-cyanophenethyl)carbamoyl)pyrrolidin-1-yl)-2-(trifluoromethyl)pyrimidin-4-yl)piperidin-4-yl)butanamido)-5-guanidinopentanoic acid]
- EC50 [1]: < 100 nM
- Cmax [2]: 1.6 ng/mL

SMILES: N#Cc1ccc(CCNC(=O)[C@@H]2CCCN2c2cc(N3CCC(CCCC(=O)NCC(N)=O)CC3)nc(C(F)(F)F)n2)cc1 [Compound 68, (S)-1-(6-(4-(4-((2-amino-2-oxoethyl)amino)-4-oxobutyl)piperidin-1-yl)-2-(trifluoromethyl)pyrimidin-4-yl)-N-(4-cyanophenethyl)pyrrolidine-2-carboxamide]
- EC50 [1]: < 100 nM
- Cmax [2]: 15 ng/mL

SMILES: N#Cc1ccc(CCNC(=O)[C@@H]2CCCN2c2cc(N3CCC(CCNC(=O)NCCS(=O)(=O)O)CC3)nc(C(F)(F)F)n2)cc1 [Compound 78, (S)-2-(3-(2-(1-(6-(2-((4-cyanophenethyl)carbamoyl)pyrrolidin-1-yl)-2-(trifluoromethyl)pyrimidin-4-yl)piperidin-4-yl)ethyl)ureido)ethanesulfonic acid]
- EC50 [1]: < 100 nM
- Cmax [2]: 1.3 ng/mL

SMILES: N#Cc1ccc(CCNC(=O)[C@@H]2CCCN2c2cc(N3CCC(CO)CC3)nc(C(F)(F)F)n2)cc1 [Compound 1, (S)—N-(4-cyanophenethyl)-1-(6-(4-(hydroxymethyl)piperidin-1-yl)-2-(trifluoromethyl)pyrimidin-4-yl)pyrrolidine-2-carboxamide]
- Cmax [2]: 233 ng/mL

SMILES: N#Cc1ccc(CCNC(=O)[C@@H]2CCCN2c2cc(N3CCC(CCCC(=O)NCCNc4cc(C(=O)O)ncn4)CC3)nc(C(F)(F)F)n2)cc1 [Compound 101, (S)-6-((2-(4-(1-(6-(2-((4-cyanophenethyl)carbamoyl)pyrrolidin-1-yl)-2-(trifluoromethyl)pyrimidin-4-yl)piperidin-4-yl)butanamido)ethyl)amino)-pyrimidine-4-carboxylic acid]
- EC50 [1]: < 100 nM
- Cmax [2]: 0.7 ng/mL

SMILES: O=C(CCCC1CCN(c2cc(N3CCC[C@H]3C(=O)NCCc3ccc(C(F)(F)F)cc3)nc(C(F)(F)F)n2)CC1)NCCNc1ncnc2c1ncn2[C@@H]1O[C@H](CO)C(O)C1O (stereo partly drawn) [Compound 96, (2S)-1-(6-(4-(4-((2-((9-((2R,5R)-3,4-dihydroxy-5-(hydroxymethyl)-tetrahydrofuran-2-yl)-9H-purin-6-yl)amino)ethyl)amino)-4-oxobutyl)piperidin-1-yl)-2-(trifluoromethyl)-pyrimidin-4-yl)-N-(4-(trifluoromethyl)-phenethyl)-pyrrolidine-2-carboxamide]
- EC50 [1]: < 100 nM
- Cmax [2]: 1.1 ng/mL
